# Measured values reported in patent US12396963B2, “Cannabidiol-type cannabinoid compound” (JAZZ PHARMACEUTICALS RESEARCH UK LIMITED, priority 2019, dated 2025).
# Columns and labels:
# [1] = tested on: mouse model of generalised seizure; assay: Maximal electroshock seizure threshold (MEST) test in the mouse, Example 3; details: CC50, 30 min pre-treatment
# Description: The efficacy of CBD-C1 was tested in a mouse model of generalised seizure, the maximal electroshock seizure threshold (M EST) test, as in Example 2.
# Naïve mice were acclimatised to the procedure room in their home cages for up to 7 days, with food and water available ad libitum.
# All animals were weighed at the beginning of the study and randomly assigned to treatment groups based on a mean distribution of body weight across groups.
# The first animal within a treatment group was given a shock at the expected or estimated CC50 current. For subsequent animals, the current was lowered or raised depending on the convulsions outcome from the preceding animal.
# Data generated from each treatment group were used to calculate the CC50±SEM values for the treatment group.
# Vehicle: (5% ethanol, 5% solutol, 90% Saline) was prepared as follows: 2 mL of ethanol, 2 mL of solutol were warmed to 60° C., in 36 mL of saline (1:1:18).
# The test compound, CBD-C1 was prepared according to the method described in Example 1. […]
# CBD-C1 effects were also calculated as percentage change in CC50 from the vehicle control group.
# Significant difference between drug-treated animals and controls were assessed according to Litchfield and Wilcoxon (1949).
# mouse model of seizure = assay: Maximal electroshock seizure threshold (MEST) test in the mouse, Example 2; details: CC50; 2.5 mg/kg i.p., 30 min pre-treatment
# Description: The efficacy of CBD-C1 was tested in a mouse model of seizure, the maximal electroshock seizure threshold (MEST) test.
# The maximal electroshock seizure threshold (MEST) test is widely utilized preclinically to evaluate pro- and anti-convulsant properties of molecules (Loscher et al., 1991).
# In the MEST test the ability of a drug to alter the seizure threshold current required to induce hind limb tonic extensor convulsions is measured according to an “up and down” method of shock titration (Kimball et al., 1957). An increase in seizure threshold is indicative of anti-convulsant effect.
# Naïve mice were acclimatised to the procedure room in their home cages, with food and water available ad libitum.
# Animals were dosed i.p. according to dose group.
# The vehicle (10 ml/kg i.p. 60 min pre-treatment time) was 1:1:18 vehicle 5% ethanol, 5% kolliphor EL, 90% saline. […]
# Mice were individually assessed for the production of a tonic hind limb extensor seizure using a Hugo Sachs Electronik stimulator, which delivered an adjustable constant current (1-300 mA) of 0.1 s duration via corneal electrodes. […]
# Induction of seizure is measured as an all-or-nothing effect scored as either present (+) or absent (0) for each animal.
# Data was analysed by comparing treated groups with the appropriate vehicle control using Fisher's Exact Probability tests.
SMILES,% change from vehicle ([1]; 250 mg/kg i.p.) [%],% change from vehicle (mouse model of seizure) [%],% change from vehicle ([1]; 2.5 mg/kg i.p.) [%]
"CCCC(CCC)C(=O)[O-].[Na+] [Sodium Valproate, sodium valproate, reference compound]",1160,,
"CN1C(=O)CN=C(c2ccccc2)c2cc(Cl)ccc21 [Diazepam, diazepam, reference compound]",,68,247
